Experimental findings from paper PMC5154303, “Flavonol and imidazole derivatives block HPV16 E6 activities and reactivate apoptotic pathways in HPV^+ cells” (Cell Death & Disease, 2016) are described below.

Structures are written as SMILES.

Experiment [1] concerns SCC 84. Put plainly: Sensitization to doxorubicin in HPV− HNSCC line SCC 84 (MTT). Format: cell-based, human. The conditions noted are these: HPV− #84, compound 0–12.5 μM, 2 μM doxorubicin. The method, then:
(§1) Figure 8 Myricetin and spinacine (5) can re-sensitize HPV^+, but not HPV^−, HNSCC cell lines to treatment with doxorubicin. Two HPV^− (UMMSCC 29 and SCC 84) and three HPV^+ (UMSCC 47, UPCI-SCC90-UP-Clone 35, and UM-SCC47-TC Clone 3) head and neck cancer cell lines (2 × 10^4 cells per well) were seeded into 96-well plates and allowed to incubate overnight, and then cells were pretreated with myricetin or spinacine (0–12.5 μM) for 4 h. In all, 2 μM of doxorubicin was added, and the cells were allowed to incubate overnight. Cell viability was measured by MTT assay, and the viability of cells untreated with small molecules was set at 100%. Experiments were performed in triplicate, and error bars indicate the S.D.
(§2) The extracellular domain of human TRAIL was cloned into a pTriEx expression plasmid containing N-terminal Hisx6 tag. His-TRAIL was expressed in the E. coli BL-21 pLys strain and purified as previously described. Doxorubicin and cisplatin were purchased from Sigma. His-TRAIL, doxorubicin, and cisplatin were diluted in PBS to the desired concentration before using. […] All experiments were repeated at least three times (three biological replicates, carried out on different days), with each experimental group measured in triplicate within each of these individual experiments. […]

Experiment [2] relates to C33A cells. Briefly: TRAIL-mediated apoptosis in HPV− C33A cells (MTT). Type of experiment: cell-based, human. The conditions noted are these: 100 μM myricetin pretreatment 4 h, TRAIL + cycloheximide. As for the experimental part:
Figure 5 Myricetin and spinacine (5) can re-sensitize HPV^+, but not HPV^−, cells to treatment with TRAIL. SiHa (2 × 10^4 cells per well) and C33A cells (1 × 10^4 cells per well) were seeded into a 96-well plate and allowed to incubate overnight, and then cells were pretreated in the presence or absence of (a) myricetin (100 μM) or (b) spinacine (50 μM) for 4 h. The indicated concentration of TRAIL along with cycloheximide (5 μg/ml) was added, and the cells were allowed to incubate overnight. Cell viability was measured by MTT assay, and the viability of cells untreated with TRAIL was set at 100%. Experiments were performed in triplicate, and error bars indicate the S.D.
as §2

In experiment [3] the test system is UPCI-SCC90-UP-Clone 35. Put plainly: Sensitization to doxorubicin in HPV+ HNSCC line UPCI-SCC90-UP-Clone 35 (MTT). Format: cell-based, human. The conditions noted are these: HPV+ #90, 12.5 μM compound 4 h, 2 μM doxorubicin. The method, then: as §1, §2
Experiment [4] has as its target GST-caspase 8/His-caspase 8 (Homo sapiens, UniProt Q14790). Briefly: AlphaScreen counter-screen GST-caspase 8/His-caspase 8. Type of experiment: binding. As to conditions: counter-screen, bead-based assay, 1.4 μM–3.2 mM tested. As for the experimental part: (§3) Figure 2 3-(1H-indol-1yl)propan-1-amine (1), three benzimidazole derivatives (2–4), and spinacine (5) inhibit protein–protein interactions. Five compounds at the indicated concentrations (1.4 μM–3.2 mM) were tested using our bead-based screening assay for their ability to inhibit three different protein/protein interactions: (a) GST-E6/His-caspase 8; (b) GST-E6/HisE6AP; and (c) GST-caspase 8/His-caspase 8. Binding in the presence of 1.4 μM of the test compound was set at 100%. Experiments were performed in triplicate, and error bars indicate the S.D.
To ask whether this inhibition was specific, we employed a counter-screening assay in which we assessed the ability of candidates to inhibit the binding of GST-caspase 8 to His-caspase 8; those that did were to be eliminated. In this counter-screening assay, the materials in each well were the same as in the primary screen, with the exception that GST-caspase 8 replaced GST-E6.
(§4) AlphaScreen Technology was used to assess the interactions between GST-E6, GST-caspase 8, His-E6AP, and His-caspase 8. Binding assays were performed in white 384-well plates (Perkin-Elmer) in a total volume of 25 μl as previously described.[33] Briefly, 5 μl (50 ng) of GST-E6 and 5 μl (87.5 ng) of His-caspase 8 were included in each reaction mixture with 5 μl blocking buffer (0.5 mg BSA, 0.5% Tween 20 in PBS) in the absence or presence of 10 μM of each test chemical. Members of the library were present at 10 μM in DMSO. After a 1-h incubation of the mixture at room temperature, 5 μl donor beads and 5 μl acceptor beads (Perkin-Elmer) were added to each well according to the manufacturer's protocol. The mixture was incubated in the dark at room temperature overnight, and the emitted signal was detected using the Envision Multilabel plate reader (Perkin-Elmer). In the presence of test chemicals, the binding affinity was calculated as a percentage of the binding in the presence of carrier only (DMSO).
For orientation: In Alpha technology, singlet oxygen from a donor bead excites a nearby acceptor bead.

Experiment [5] deals with UMSCC 47. Briefly: Sensitization to doxorubicin in HPV+ HNSCC line UMSCC 47 (MTT). Format: cell-based, human. As to conditions: HPV+ #47, 12.5 μM compound 4 h, 2 μM doxorubicin. As for the experimental part:
as §1, §2

The target of experiment [6] is T1, GST-E6/His-E6AP (Human papillomavirus type 16, UniProt P03126).
T1 construct: made in house
Put plainly: AlphaScreen bead-based binding assay GST-E6/His-E6AP. More on the design: species or system HPV 16. The method, then: as §3
(§5) The construction of the pGEX-E6, pTriEx-E6AP, and pTriEx-Caspase-8 DED plasmids has been reported.[33] Expression and purification of GSTE6, His-E6AP, and His-Caspase-8 DED were carried out as previously described.[33], [37] GST-tagged and His-tagged proteins were diluted into GST dilution buffer (PBS pH 8.0, 5% glycerol, 2 mM DTT) and His dilution buffer (20 mM Hepes pH 7.4, 150 mM NaCl, 2 mMKCl, 5% glycerol, 2 mM DTT), respectively. Protein concentration was measured using Coomassie Plus – The Better Bradford Assay Reagent (Thermo Scientific, Waltham, MA, USA). Purity of the isolated proteins was estimated following separation by sodium dodecyl sulfate-polyacrylamide gel electrophoresis (SDS-PAGE) and Coomassie staining.
as §4

Experiment [7] concerns the target T2, GST-E6/His-caspase 8 (Human papillomavirus type 16, UniProt P03126).
T2 construct: made in house
Put plainly: AlphaScreen bead-based binding assay GST-E6/His-caspase 8. More on the design: species or system HPV 16. As for the experimental part: as §3, §5, §4

The subject of experiment [8] is UM-SCC47-TC-Clone 3. Put plainly: Sensitization to doxorubicin in HPV+ HNSCC line UM-SCC47-TC-Clone 3 (MTT). Type of experiment: cell-based, human. As to conditions: HPV+ #47CL3, 12.5 μM compound 4 h, 2 μM doxorubicin. The method, then: as §1, §2

GST-caspase 8/His-caspase 8, sequence (Q14790 1-184): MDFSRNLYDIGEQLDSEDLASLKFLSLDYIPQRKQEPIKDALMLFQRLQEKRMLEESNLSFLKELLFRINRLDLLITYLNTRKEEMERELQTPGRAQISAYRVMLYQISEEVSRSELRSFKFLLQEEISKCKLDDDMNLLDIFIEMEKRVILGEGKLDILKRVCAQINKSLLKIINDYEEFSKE
T2 sequence (P03126 whole entry): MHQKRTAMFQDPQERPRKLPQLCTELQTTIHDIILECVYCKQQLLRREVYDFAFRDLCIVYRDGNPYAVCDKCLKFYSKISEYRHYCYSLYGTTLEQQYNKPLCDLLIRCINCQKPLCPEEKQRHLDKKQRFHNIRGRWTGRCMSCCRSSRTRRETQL
T1 sequence (P03126 whole entry): as above

As for `O=c1c(O)c(-c2cc(O)c(O)c(O)c2)oc2cc(O)cc(O)c12` [Myricetin, myricetin, reference compound], in experiment [1], the “response to doxorubicin in presence and absence of compound” value is recorded as “resistant”. The “sensitivity of C33A cells to TRAIL-mediated apoptosis” value in experiment [2] is recorded as “remained resistant”.

The term EC50 denotes the midpoint of the concentration-response curve. Read a high EC50 as a need for much substance. For the molecule `O=C(O)C1Cc2[nH]cnc2CN1` (stereo not drawn) [Spinacine (5), 4,5,6,7-tetrahydro-1H-imidazo[4,5–c]pyridine-6-carboxylic acid], the sensitization to doxorubicin entry in experiment [3], in experiment [5] and in experiment [8] was “up to 50%” throughout. The “EC50 for GST-caspase 8/His-caspase 8 interaction” value in experiment [4] was “No Inhibition”. Also, the 50% effective concentration (EC50) in experiment [6] amounted to 20 µM; in experiment [7] it was 17 µM. For the same molecule, in experiment [1], the “response to doxorubicin in presence and absence of compound” value is “resistant”.
